Experimental data published in the supplement of paper PMC10307832.

How the values were obtained:
Test in all cases: relative viability (nuclei count vs DMSO), 5 days (fraction); higher = more cells survive
[1] = compound: N[C@@H]1CCCN(c2c(/C=C3\SC(=O)NC3=O)cccc2-c2ccccc2)C1 [AZD1208] + C[C@]1(O)C[C@@H](c2nc(-c3ccc4ccc(-c5ccccc5)nc4c3)c3c(N)nccn32)C1 [Linsitinib] (partner 1 µM)
Procedure, shortened: (§1)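 Lung cancer cell lines were seeded in 1536-well plates and dosed by pin tool the next day, with either a single drug or a fixed anchor-drug dose combined with five library-drug doses (not always all listed) spaced in √10 steps. Five days later, one step fixed the cells and stained their nuclei (final 0.05% Triton X-100, 1% formaldehyde, 1 ug/ml Hoechst), and nuclei were counted on 4× images. Relative viability is the nuclei count in treated wells divided by the count in vehicle wells, and each value is the median of duplicate plates.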

[2] = compound: CN1CCN(CC1)C2=CC(=C(C=C2)NC3=NC(=C(S3)C(=O)C4=C(C=CC=C4Cl)Cl)N)OC [XMD14-99] + O=C(CCCCCCC(=O)Nc1ccccc1)NO [Vorinostat] (partner 1 µM)
Procedure, shortened: as §1

[3] = compound: N[C@@H]1CCCN(c2c(/C=C3\SC(=O)NC3=O)cccc2-c2ccccc2)C1 [AZD1208] + CC1(C)CCC(c2ccc(Cl)cc2)=C(CN2CCN(c3ccc(C(=O)NS(=O)(=O)c4ccc(N[C@H](CCN5CCOCC5)CSc5ccccc5)c(S(=O)(=O)C(F)(F)F)c4)cc3)CC2)C1 [Navitoclax] (partner 0.5 µM)
Procedure, shortened: as §1

[4] = compound: CN1CCN(CC1)C2=CC(=C(C=C2)NC3=NC(=C(S3)C(=O)C4=C(C=CC=C4Cl)Cl)N)OC [XMD14-99] + COc1cccc2cc(-c3nc([C@H]4CC[C@H](C(=O)O)CC4)n4ncnc(N)c34)[nH]c12 [OSI-027] (partner 0.5 µM)
Procedure, shortened: as §1

Cell Line	relative viability ([1]; first compound 0.08 µM)	relative viability ([1]; first compound 0.253 µM)	relative viability ([1]; first compound 0.8 µM)	relative viability ([1]; first compound 2.53 µM)	relative viability ([1]; first compound 8 µM)	relative viability ([2]; first compound 0.08 µM)	relative viability ([2]; first compound 0.8 µM)	relative viability ([2]; first compound 2.53 µM)	relative viability ([2]; first compound 8 µM)	relative viability ([3]; first compound 0.08 µM)	relative viability ([3]; first compound 0.253 µM)	relative viability ([3]; first compound 0.8 µM)	relative viability ([3]; first compound 2.53 µM)	relative viability ([3]; first compound 8 µM)	relative viability ([4]; first compound 0.08 µM)	relative viability ([4]; first compound 0.8 µM)	relative viability ([4]; first compound 2.53 µM)	relative viability ([4]; first compound 8 µM)
SK-MES-1	1.01	1.02	1.06	1.04	0.969	1.08	1.08	1.05	0.657	1.08	1.41	1.08	1.03	0.926	0.589	0.506	0.54	0.291
SW 1573	0.725	0.637	0.745	0.656	0.534	0.833	0.765	0.756	0.631	0.896	0.948	0.765	0.995	0.717	0.629	0.758	0.599	0.493
